# From ChEMBL document CHEMBL3120130, “Benzenesulfonamide bearing 1,2,4-triazole scaffolds as potent inhibitors of tumor associated carbonic anhydrase isoforms hCA IX and hCA XII” (Bioorg Med Chem, 2014)
# pKi: −log10 of the molar value.
# Experiments:
# Carbonic anhydrase 9 = Carbonic anhydrase 9 (Homo sapiens, UniProt Q16790); assay: Inhibition of human transmembrane carbonic anhydrase 9 by stopped flow CO2 hydration assay
# Carbonic anhydrase 1 = Carbonic anhydrase 1 (Homo sapiens, UniProt P00915); assay: Inhibition of human cytosolic carbonic anhydrase 1 by stopped flow CO2 hydration assay
# Sequence of Carbonic anhydrase 1 (P00915 whole entry): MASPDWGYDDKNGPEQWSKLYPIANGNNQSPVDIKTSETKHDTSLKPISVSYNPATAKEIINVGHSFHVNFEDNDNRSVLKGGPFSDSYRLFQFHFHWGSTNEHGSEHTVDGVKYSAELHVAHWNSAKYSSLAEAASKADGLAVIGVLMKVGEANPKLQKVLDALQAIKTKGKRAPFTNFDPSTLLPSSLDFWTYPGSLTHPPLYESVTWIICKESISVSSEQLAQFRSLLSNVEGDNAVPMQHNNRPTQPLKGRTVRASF
Structure (SMILES),pKi (Carbonic anhydrase 9),pKi (Carbonic anhydrase 1)
NS(=O)(=O)c1ccc(-c2nnc3n2N=C(c2ccc([N+](=O)[O-])cc2)CS3)cc1,6.94,–
Cc1ccc(-c2nn3c(-c4ccc(S(N)(=O)=O)cc4)nnc3s2)cc1,6.45,< 5.00
NS(=O)(=O)c1ccc(-c2nnc3sc(-c4ccc(Cl)cc4)nn23)cc1,7.05,–
NS(=O)(=O)c1ccc(-c2nnc3n2N=C(c2ccc(F)cc2)CS3)cc1,7.60,–
Cc1ccc(C2=Nn3c(nnc3-c3ccc(S(N)(=O)=O)cc3)SC2)cc1,7.89,–
COc1ccc(-c2nn3c(-c4ccc(S(N)(=O)=O)cc4)nnc3s2)cc1,6.37,< 5.00
NS(=O)(=O)c1ccc(-c2nnc3sc(-c4ccccc4)nn23)cc1,6.94,–
NS(=O)(=O)c1ccc(-c2nnc3n2N=C(c2ccc(Cl)cc2)CS3)cc1,7.12,–
Cc1ccc(-c2n[nH]c(=S)n2-c2ccc(S(N)(=O)=O)cc2)cc1,7.80,–
NS(=O)(=O)c1ccc(-c2nnc3sc(-c4ccc(F)cc4)nn23)cc1,7.19,< 5.00
NS(=O)(=O)c1ccc(-c2nnc3sc(-c4ccc(Br)cc4)nn23)cc1,6.98,–

# The remaining molecules from weak to strong by pKi (Carbonic anhydrase 9), led by results:
pKi (Carbonic anhydrase 9),pKi (Carbonic anhydrase 1),Structure (SMILES)
7.39,< 5.00,NS(=O)(=O)c1ccc(-c2nnc3sc(-c4ccc([N+](=O)[O-])cc4)nn23)cc1
7.68,–,NS(=O)(=O)c1ccc(-c2nnc3n2N=C(c2ccccc2)CS3)cc1
8.05,–,NS(=O)(=O)c1ccc(-c2n[nH]c(=S)n2-c2ccc(S(N)(=O)=O)cc2)cc1
8.12,–,NS(=O)(=O)c1ccc(-n2c(-c3ccc(Br)cc3)n[nH]c2=S)cc1
8.24,–,NS(=O)(=O)c1ccc(-n2c(-c3ccc(Cl)cc3)n[nH]c2=S)cc1
8.43,–,NS(=O)(=O)c1ccc(-c2nnc3n2N=C(c2ccc(Br)cc2)CS3)cc1
8.55,–,NS(=O)(=O)c1ccc(-n2c(-c3ccc(F)cc3)n[nH]c2=S)cc1
